Experimental findings from patent US20170137419A1, “DERIVATIVES OF 2H-PYRAZOLO[4,3-C]QUINOLIN-3(5H)-ONE AND USE THEREOF” (UNIVERSITE DU DROIT ET DE LA SANTE LILLE 2, priority 2014, published 2017) are described below.

Read-outs that look alike come from different tables or passages of the source.

One data set concerns the target hCB1 (Homo sapiens, UniProt P21554). Briefly: Binding affinity hCB1, [3H]-CP-55,940 displacement. The protocol:
(§1) Measurement of Affinity. The binding studies were carried out in accordance with the protocols described by El Bakali et al. (El Bakali, J.; Muccioli, G. G.; Renault, N.; Pradal, D.; Body-Malapel, M.; Djouina, M.; Hamtiaux, L.; Andrzejak, V.; Desreumaux, P.; Chavatte, P.; Lambert, D. M.; Millet, R. 4-Oxo-1,4-Dihydropyridines as Selective CB2 Cannabinoid Receptor Ligands: Structural Insights into the Design of a Novel Inverse Agonist Series. J. Med. Chem. 2010, 53, 7918-7931) but applying a small modification. Briefly, the [3H]-CP-55,940 (0.5 nM) chosen as a radioligand for the CB1 and CB2 human receptors is added to 6 μg of membranes resuspended in 550 μl (final volume) of buffer (20 mM Hepes, 5 mM MgCl2, 1 mM EDTA, 0.3% bovine serum albumin, pH 7.4). After 1 hour at 30° C., incubation is stopped and the solution is quickly filtered on Harvester, through the “Unifilter 96 (PerkinElmer)” filter previously saturated with bonding buffer (20 mM Hepes, 5 mM MgCl2, 1 mM EDTA, 0.3% bovine serum albumin, pH 7.4), and then washed 20 times with iced binding buffer without serum albumin. The radioactivity of the filters was measured using the “TopCount NXT Microplate Scintillation Counter (PerkinElmer)” after addition of 60 μl of “MicroScint 40 (PerkinElmer)” scintillation liquid. The experiments were carried out in triplicate. The non-specific binding was determined in the presence of 5 μM (R)-(+)-WIN 55,212-2 (Sigma).
(§2) Analysis of the Data. The values of Ki and EC50 were determined by non-linear regression carried out by the “GraphPad Prism 5.0” program (GraphPad Software, San Diego). The statistical analysis of the results of the [^35S]-GTPγS dosing was carried out by means of the “Student” test.

In data set [1] the target is T1, hCB2 (Homo sapiens, UniProt P34972). Briefly: Binding affinity hCB2, [3H]-CP-55,940 displacement. As for the experimental part: as §1, §2
The target in data set [2] is T1, hCB2. Briefly: [35S]-GTPγS functional activity (hCB2). The format is biochemical. The protocol:
Dosing of [^355]-GTPγS. The studies were carried out at 30° C. in tubes containing 10 μg of protein in 0.5 ml (final volume) of buffer (20 mM Hepes, 10 mM MgCl2, 100 mM NaCl, 0.1% bovine serum albumin, pH 7.4) supplemented with 30 μm of GDP. The dosing was initiated by the addition of [^35S]-GTPγS (0.1 nM, final concentration). After 1 hour at 30° C., the incubation was stopped and the solution was quickly filtered on the “Unifilter-96 GF/B” filter and washed 20 times with iced bonding buffer. The radioactivity on the filters was counted as mentioned above. The non-specific binding was measured in the presence of 100 μm of Gpp(NH)p. The results were expressed in EC50 (nM) and Emax (%).
as §2
A general note: Binding of GTPγS marks nucleotide exchange on a G protein.

In the next data set the test system is colitis caused by TNBS. Briefly: Model of colitis caused by TNBS in mice. The format is in vivo, C57B16 male mice. As for the experimental part: C57B16 male mice (n=10 per group) have free access to food and water. To cause colitis, the mice are anaesthetised for 90-120 minutes by subcutaneous administration of zylasine-ketamine (50 mg/kg) diluted in physiological serum, then receive an intrarectal administration of TNBS (40 μl, 150 mg/kg) diluted in a 1:1 mixture of 0.9% NaCl and 100% ethanol. The novel CB2 agonists are diluted in 0.5% carboxymethyl cellulose (Sigma-Aldrich, Saint Quentin Fallavier, France) for a dose administered by gavage of 0.1, 1 and 10 mg/kg body weight/day. JWH133, a known CB2 agonist (Kimball E S, Schneider C R, Wallace N H, Hornby P J. Agonists of cannabinoid receptor 1 and 2 inhibit experimental colitis induced by oil of mustard and by dextran sulfate soldium. Am. J. Physiol. Gastrointest. Liver Physiol., 2006, 291, G364-71.), is administered intraperitoneally at a dose of 0.1 mg/kg body weight/day. The animals are euthanised 5 days after the administration of TNBS. The intensity of the colitis at macroscopic and histological levels is assessed in each colon blind by 2 investigators. The scale of the macroscopic scores of the lesions ranges from 0 to 10 according to characteristics reflecting inflammation, such as hyperaemia, thickening of the intestinal wall and the extent of ulcerations. A localised colon biopsy precisely 2 cm above the anal channel is used for histological analysis following a May-Grunwald Giemsa colouring. The histological score varies between 0 and 6 and takes into account the degree of inflammatory infiltrate, the presence of erosion, ulcerations and necrosis of the mucosa, and the level of extension of the lesions in depth and on the surface reached. Two other colon biopsies are frozen and used to analyse the levels of mRNA of inflammatory cytokines by PCR in real time. The total mRNAs of the colon are extracted using the Nucleospin RNAII kit (Macherey Nagel, Hoerdt, France) and then retrotranscripts using the High-Capacity cDNA Reverse Transcription Kit (Applied Biosystems), Foster City, USA). The real-time PCR is carried out with SYBR Green (Applied Biosystems, Foster City, USA). The specific primers for TNF-alpha (TNF-alpha F and TNF-alpha R), IL-1 beta (IL1-beta F and IL1-beta R) and POLR2A (POLR2A F and POLR2A R) as reference gene were chosen using the Primer Express 2 software (Applied Biosystems, Foster City, USA). For the graphical representation of the quantitative PCR data, the values of Ct obtained for the target genes are compared with those of the reference gene, using the ΔΔCt method, that is to say: ΔΔCt=(Ct of the target gene−Ct of the reference gene) treated mouse−(Ct of the target gene−Ct of the reference gene) non-treated mouse, and the final data are derived from 2-ΔΔCt.
Compound 26 was evaluated in mice in a model of colitis caused by TNBS in accordance with a described protocol (Desreumaux, P.; Dubuquoy, L.; Nutten, S.; Peuchmaur, M.; Englaro, W.; Schoonjans, K.; Derijard, B.; Desvergne, B.; Wahli, W.; Chambon, P.; Leibowitz, M. D.; Colombel, J. F.; Auwerx, J. Attenuation of Colon Inflammation Through Activators of the Retinoid X Receptor (RXR)/Peroxisome Proliferator-Activated Receptor Gamma (PPARgamma) Heterodimer. A Basis for New Therapeutic Strtegies. J. Exp. Med. 2001, 193, 827-838). Thus compound 26 was administered orally in carboxymethyl cellulose (CMC) each day at a dose of 0.1, 1 and 10 mg/kg for seven days, and two days before the induction of colitis. A control with an administration of CMC alone was effected.

The mark [3] stands for this setting: Table 3, radioligand [3H]-CP-55,940 0.5 nM, read-out: Binding affinity hCB1 Ki.
[4] abbreviates: Table 2, radioligand [3H]-CP-55,940 0.5 nM, read-out: Binding affinity hCB2 Ki.
The mark [5] stands for this setting: Table 2, radioligand [3H]-CP-55,940 0.5 nM, read-out: Binding affinity hCB1 Ki.

hCB1, sequence (P21554 whole entry): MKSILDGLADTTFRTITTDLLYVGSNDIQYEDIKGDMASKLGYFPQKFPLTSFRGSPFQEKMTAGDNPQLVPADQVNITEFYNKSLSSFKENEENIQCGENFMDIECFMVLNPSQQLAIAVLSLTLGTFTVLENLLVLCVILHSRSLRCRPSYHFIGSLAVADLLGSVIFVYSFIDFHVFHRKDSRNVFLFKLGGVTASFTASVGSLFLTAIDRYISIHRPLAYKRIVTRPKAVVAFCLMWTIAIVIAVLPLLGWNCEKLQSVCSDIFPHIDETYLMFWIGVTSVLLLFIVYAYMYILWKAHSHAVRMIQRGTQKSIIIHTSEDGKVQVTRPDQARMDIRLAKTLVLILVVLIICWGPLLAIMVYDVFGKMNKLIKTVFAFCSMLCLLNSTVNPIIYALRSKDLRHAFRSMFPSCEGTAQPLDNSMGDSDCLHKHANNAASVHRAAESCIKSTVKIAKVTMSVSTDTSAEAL
T1 sequence (P34972 whole entry): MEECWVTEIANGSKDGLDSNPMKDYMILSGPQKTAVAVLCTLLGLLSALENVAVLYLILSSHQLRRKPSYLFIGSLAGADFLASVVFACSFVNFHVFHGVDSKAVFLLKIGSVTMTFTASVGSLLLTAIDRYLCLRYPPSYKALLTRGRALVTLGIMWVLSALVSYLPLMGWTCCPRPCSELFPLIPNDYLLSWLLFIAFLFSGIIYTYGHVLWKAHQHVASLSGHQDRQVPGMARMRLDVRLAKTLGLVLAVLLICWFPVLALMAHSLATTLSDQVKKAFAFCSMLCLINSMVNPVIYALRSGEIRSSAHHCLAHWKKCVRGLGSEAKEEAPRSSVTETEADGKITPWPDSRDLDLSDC

As usually defined, the Ki is the equilibrium dissociation constant of an inhibitor or competing ligand from its target. By melting point is commonly meant the temperature of the solid-liquid transition. On to `CCCCn1cc2c(=O)n(CC3CCCCC3)nc-2c2ccccc21` [Compound 40, 2-(Cyclohexylmethyl)-5-butyl-2H-pyrazolo[4,3-c]quinolin-3(5H)-one], for which the melting point was 216 °C. Also, the Ki at hCB1 (setting [3]) is above 10000 nM. For the same molecule, on hCB2 [1], affinity was put at a Ki of 14.8 nM.

On to `CCCCCn1cc2c(=O)n(Cc3ccccc3)nc-2c2ccccc21` [Compound 19, 2-Benzyl-5-pentyl-2H-pyrazolo[4,3-c]quinolin-3(5H)-one], for which the Ki at hCB1 and at hCB2 [1] was above 3000 nM in each case.

For the molecule `O=c1c2cn(CCCC(F)(F)F)c3ccccc3c-2nn1CC1CCCCC1` [Compound 43, 2-(Cyclohexylmethyl)-5-(4,4,4-trifluorobutyl)-2H-pyrazolo[4,3-c]quinolin-3(5H)-one], the melting point stood at 224 °C. Further, the Ki at hCB1 (setting [3]) was 1680 nM. This molecule also yielded a Ki on hCB2 [1] of 6.17 nM.

Broadly, the EC50 is the concentration giving half of the maximal effect. Read a low EC50 as higher potency in that assay. What is called Emax is the size of the effect at its maximum, as opposed to the concentration needed. Molecule `CCCCCn1cc2c(=O)n(CCC3CCCCC3)nc-2c2ccccc21` [Compound 25, 2-(2-Cyclohexylethyl)-5-pentyl-2H-pyrazolo[4,3-c]quinolin-3(5H)-one] displayed a Ki at hCB1 above 3000 nM. At hCB2 [2], this molecule showed an EC50 of 5.4 ± 1.1 nM and an Emax of 141 ± 3%. Also, the Ki on hCB2 [1] (setting [4]) turned out to be 8 ± 0.4 nM.

As for `CCCCCn1nc2c3ccccc3n(CCCCC)cc-2c1=O` [Compound 21, 2,5-Dipentyl-2H-pyrazolo[4,3-c]quinolin-3(5H)-one], the Ki on hCB1 was above 3000 nM; on hCB2 [1] (setting [4]), 4.3 ± 0.3 nM.

`CCCCCn1cc2c(=O)n(C3CCCCC3)nc-2c2ccccc21` [Compound 16, 2-Cyclohexyl-5-pentyl-2H-pyrazolo[4,3-c]quinolin-3 (5H)-one] yielded a Ki at hCB1 above 3000 nM. On hCB2 [2], this molecule had an EC50 of 204 ± 41 nM and an Emax of 160 ± 3%. For the same molecule, the Ki at hCB2 [1] (setting [4]) worked out at 18.8 ± 3.3 nM.

For the molecule `CCCCCn1cc2c(=O)n(CC34CC5CC(CC(C5)C3)C4)nc-2c2ccccc21` [Compound 26, 2-(1-Adamantylmethyl)-5-pentyl-2H-pyrazolo[4,3-c]quinolin-3(5H)-one], on hCB2 [2], a half-maximal effect (EC50) was put at 64 ± 10 nM and the Emax is 163 ± 4%. For the same molecule, the “Overall efficacy against colitis” value with colitis caused by TNBS (oral administration) is “effective in mice against colitis in a dose-dependent manner”. Also, the “Loss of body weight” value in the data set on colitis caused by TNBS (oral daily treatment 0.1, 1 and 10 mg/kg, five days after TNBS) was “attenuates in a dose-dependent manner the loss of weight”. In addition, the Macroscopic score in the data set with colitis caused by TNBS (oral, 10 mg/kg, scale 0 to 10, printed as 1.7 versus 1.9) came to 1.7. The “Mortality / survival rate” value with colitis caused by TNBS (oral, 0.1, 1 and 10 mg/kg daily, versus untreated mice (FIG. 1A)) was “reduction in mortality”. In addition, the “Macroscopic score” value in the data set with colitis caused by TNBS (oral, 0.1, 1 and 10 mg/kg, colon after euthanasia (FIG. 2A)) is on record as “reduces the macroscopic scores (FIG. 2A) in a dose-dependent manner”. Moreover, in the data set with colitis caused by TNBS (oral, histological score scale 0 to 6 (FIG. 2B)), the “Attenuation of histological scores” value was determined as 65%. Moreover, the inhibition constant Ki on hCB2 [1] (setting [4]) turned out to be 0.39 ± 0.03 nM.

As for `CCCCCn1cc2c(=O)[nH]nc-2c2ccccc21` [Compound 8, 5-Pentyl-2H-pyrazolo[4,3-c]quinolin-3(5H)-one], the Ki on hCB1 (setting [5]) and at hCB2 [1] (setting [4]) was above 3000 nM throughout.

At hCB1, `CCCCCn1cc2c(=O)n(CC3CCCCC3)nc-2c2ccccc21` [Compound 24, 2-(Cyclohexylmethyl)-5-pentyl-2H-pyrazolo[4,3-c]quinolin-3(5H)-one] yielded a Ki above 3000 nM. In addition, at hCB2 [2], the midpoint of the response, the EC50, lay at 14.3 ± 4 nM and the Emax was 149 ± 4%. Also, on hCB2 [1] (setting [4]), the Ki amounted to 0.62 ± 0.03 nM.

For `CCCCCCn1nc2c3ccccc3n(CCCCC)cc-2c1=O` [Compound 22, 2-Hexyl-5-pentyl-2H-pyrazolo[4,3-c]quinolin-3(5H)-one], the Ki at hCB1 is above 3000 nM; at hCB2 [1] (setting [4]), 7.7 ± 0.3 nM.

Turning to `O=c1c2cn(CC3CCOCC3)c3ccccc3c-2nn1CC1CCCCC1` [Compound 42, 2-(Cyclohexylmethyl)-5-(tetrahydro-2H-4-pyranylmethyl)-pyrazolo[4,3-c]quinolin-3(5H)-one], the melting point is above 250 °C. For the same molecule, the affinity on hCB1, expressed as Ki, was 520 nM. Also, on hCB2 [1], affinity was put at a Ki of 5.32 nM.

`CCCCCn1cc2c(=O)n(CC3CC3)nc-2c2ccccc21` [Compound 23, 2-(Cyclopropylmethyl)-5-pentyl-2H-pyrazolo[4,3-c]quinolin-3(5H)-one]: the Ki is above 3000 nM on hCB1 (setting [5]) and 10.4 ± 3.1 nM at hCB2 [1] (setting [4]).

With `CCCCCn1cc2c(=O)n(CCC34CC5CC(CC(C5)C3)C4)nc-2c2ccccc21` [Compound 27, 2-(1-Adamantylethyl)-5-pentyl-2H-pyrazolo[4,3-c]quinolin-3 (5H)-one], the inhibitory constant (Ki) at hCB2 [1] (setting [4]) stood at 26.1 ± 3.8 nM.

In turn, `CCCCCCn1cc2c(=O)n(CC3CCCCC3)nc-2c2ccccc21` [Compound 41, 2-(Cyclohexylmethyl)-5-hexyl-2H-pyrazolo[4,3-c]quinolin-3(5H)-one] yielded a melting point of 193 °C. For the same molecule, the inhibition constant (Ki) at hCB1 (setting [3]) is above 10000 nM. On hCB2 [1], this molecule gave a Ki of 31.1 nM.
